ChEMBL document CHEMBL1201862, “PubChem BioAssay data set” (2004)
The source made the active and inactive calls.

Experiments:
Cytochrome P450 2C19 = Cytochrome P450 2C19 (Homo sapiens, UniProt P33261); test: Cytochrome panel assay with activity outcomes. Panel member name: p450-cyp2c19 Compounds with AC50 equal or less than 10 uM are considered active; assay type: functional
Cytochrome P450 3A4 = Cytochrome P450 3A4 (Homo sapiens, UniProt P08684);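 note: CYP3A4 tested as one member of a cytochrome P450 panel screen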
Cytochrome P450 3A4, sequence (P08684 whole entry): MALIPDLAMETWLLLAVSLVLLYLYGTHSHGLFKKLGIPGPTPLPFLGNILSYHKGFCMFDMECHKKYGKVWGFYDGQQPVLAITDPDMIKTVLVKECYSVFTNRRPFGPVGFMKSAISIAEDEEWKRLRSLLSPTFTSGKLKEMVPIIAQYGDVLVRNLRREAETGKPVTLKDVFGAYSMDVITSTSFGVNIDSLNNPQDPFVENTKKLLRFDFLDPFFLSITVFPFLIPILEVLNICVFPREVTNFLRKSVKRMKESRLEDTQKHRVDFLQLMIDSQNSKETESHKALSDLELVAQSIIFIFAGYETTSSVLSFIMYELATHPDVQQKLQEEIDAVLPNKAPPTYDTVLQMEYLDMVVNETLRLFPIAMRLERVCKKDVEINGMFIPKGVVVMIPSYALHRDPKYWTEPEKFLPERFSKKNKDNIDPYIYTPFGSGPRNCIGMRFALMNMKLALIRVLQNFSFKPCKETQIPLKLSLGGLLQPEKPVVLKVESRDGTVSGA

Cytochrome P450 2D6 = Cytochrome P450 2D6 (Homo sapiens, UniProt P10635);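 note: CYP2D6 member of a cytochrome P450 panel assay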
Cytochrome P450 2D6, sequence (P10635 whole entry): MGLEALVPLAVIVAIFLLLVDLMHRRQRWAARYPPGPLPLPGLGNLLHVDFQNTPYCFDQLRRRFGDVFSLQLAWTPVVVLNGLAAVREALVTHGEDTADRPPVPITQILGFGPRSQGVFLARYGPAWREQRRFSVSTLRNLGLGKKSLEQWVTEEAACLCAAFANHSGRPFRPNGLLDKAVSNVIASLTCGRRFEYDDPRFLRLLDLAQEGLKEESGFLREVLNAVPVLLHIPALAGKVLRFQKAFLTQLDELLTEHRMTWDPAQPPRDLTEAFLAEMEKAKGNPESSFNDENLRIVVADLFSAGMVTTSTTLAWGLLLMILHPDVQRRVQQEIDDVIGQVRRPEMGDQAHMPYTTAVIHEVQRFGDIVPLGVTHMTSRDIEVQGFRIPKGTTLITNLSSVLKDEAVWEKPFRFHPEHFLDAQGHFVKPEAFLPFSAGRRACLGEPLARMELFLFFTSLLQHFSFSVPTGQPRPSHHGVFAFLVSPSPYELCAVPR

Cytochrome P450 1A2 = target: T1, Cytochrome P450 1A2 (Homo sapiens, UniProt P05177);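 note: PubChem cytochrome P450 panel assay, CYP1A2 panel member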
T1 sequence (P05177 whole entry): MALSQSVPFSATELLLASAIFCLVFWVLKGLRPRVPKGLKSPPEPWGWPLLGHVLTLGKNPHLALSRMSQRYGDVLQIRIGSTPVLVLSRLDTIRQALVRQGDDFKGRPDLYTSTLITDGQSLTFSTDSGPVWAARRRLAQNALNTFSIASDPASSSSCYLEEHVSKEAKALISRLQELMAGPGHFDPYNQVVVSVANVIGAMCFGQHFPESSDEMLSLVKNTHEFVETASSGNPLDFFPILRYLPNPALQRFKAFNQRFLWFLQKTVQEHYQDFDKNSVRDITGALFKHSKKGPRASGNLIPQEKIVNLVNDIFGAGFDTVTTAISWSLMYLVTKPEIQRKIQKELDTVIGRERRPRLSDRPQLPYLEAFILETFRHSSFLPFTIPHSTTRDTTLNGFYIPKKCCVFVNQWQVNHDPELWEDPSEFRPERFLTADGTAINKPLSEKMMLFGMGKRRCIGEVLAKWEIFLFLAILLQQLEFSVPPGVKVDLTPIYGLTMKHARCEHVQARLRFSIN

[1] = target: T2, Heat shock factor protein 1 (Mus musculus, UniProt P38532); test: enhancement of HSF1-driven luciferase signal – cell-based, NIH3T3, luminescence, dose retest, confirmation (AID 435004); assay type: functional;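 note: stress induced by proteasome inhibitor MG132 added 30 min after compound; luciferase reporter driven by HSF1 response element in NIH3T3 cells; actives raise luminescence as potentiators of the MG132 stress response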
T2 sequence (P38532 whole entry): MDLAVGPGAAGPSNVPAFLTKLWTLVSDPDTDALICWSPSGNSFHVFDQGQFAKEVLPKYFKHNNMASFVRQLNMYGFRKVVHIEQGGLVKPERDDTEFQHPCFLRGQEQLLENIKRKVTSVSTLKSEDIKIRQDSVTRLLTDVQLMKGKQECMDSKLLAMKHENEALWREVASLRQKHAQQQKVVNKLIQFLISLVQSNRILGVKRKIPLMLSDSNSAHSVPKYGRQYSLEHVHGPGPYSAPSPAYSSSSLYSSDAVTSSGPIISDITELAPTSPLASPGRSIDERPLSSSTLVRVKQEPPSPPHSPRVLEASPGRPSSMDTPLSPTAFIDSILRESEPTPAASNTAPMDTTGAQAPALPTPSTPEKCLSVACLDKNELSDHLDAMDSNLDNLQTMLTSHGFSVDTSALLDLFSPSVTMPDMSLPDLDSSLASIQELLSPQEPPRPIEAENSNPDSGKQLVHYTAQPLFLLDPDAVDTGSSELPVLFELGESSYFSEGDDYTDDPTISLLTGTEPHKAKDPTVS

Cytochrome P450 2C9 = Cytochrome P450 2C9 (Homo sapiens, UniProt P11712)
Cytochrome P450 2C9, sequence (P11712 whole entry): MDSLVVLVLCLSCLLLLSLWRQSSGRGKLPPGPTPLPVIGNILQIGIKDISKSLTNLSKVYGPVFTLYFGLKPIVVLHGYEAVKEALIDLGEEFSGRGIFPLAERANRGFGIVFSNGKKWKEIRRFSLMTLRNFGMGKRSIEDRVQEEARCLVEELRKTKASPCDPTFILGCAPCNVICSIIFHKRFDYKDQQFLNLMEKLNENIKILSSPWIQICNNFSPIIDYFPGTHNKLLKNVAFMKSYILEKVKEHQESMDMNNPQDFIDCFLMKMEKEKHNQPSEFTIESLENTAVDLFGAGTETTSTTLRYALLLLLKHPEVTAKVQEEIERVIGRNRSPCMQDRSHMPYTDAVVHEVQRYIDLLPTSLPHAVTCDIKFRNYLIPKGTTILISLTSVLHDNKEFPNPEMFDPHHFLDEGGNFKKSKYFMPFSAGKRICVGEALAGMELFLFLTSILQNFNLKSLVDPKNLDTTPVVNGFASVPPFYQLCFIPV

[2] = Luminescence Cell-Based Dose Response HTS to Identify Inhibitors of 5'UTR Stem-Loop Driven Prion Protein mRNA Translation in H4 Neuroglioblastoma Cells. [Related pubchem assays: 1827 (Project Summary), 1813 (Primary HTS)]; assay type: functional
[3] = alpha-synuclein stem-loop luciferase translation blockers – H4 neuroglioma cells, luminescence, confirmation (AID 1988); assay type: functional, cell-based
[4] = Luminescence Cell-Based Dose Retest to Confirm Inhibitors of Cancer Stem Cells. [Related pubchem assays (depositor defined):AID2717, AID2721]; assay type: functional; conditions: Homo sapiens
[5] = reduction of Shn3 3'UTR-driven luciferase in osteoblasts – cell-based, Clone20 osteoblasts, firefly luciferase, cherry-picked, dose response (AID 624132); assay type: functional;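 note: firefly luciferase luminescence from reporter carrying the Shn3 3'UTR in osteoblasts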
[6] = non-specific 3'UTR reporter inhibition in Clone20-Shn3RL – cell-based, Renilla luciferase, cherry-picked, counter-screen for Shn3 inhibitor project, dose response (AID 624133); assay type: functional
[7] = Luminescence Cell-Based Dose Confirmation HTS to Identify Activators of 5'UTR Stem-Loop Driven Alpha-Synuclein mRNA Translation in H4 Neuroglioblastoma Cells. [Related pubchem assays: 1829 (Project Summary), 1814 (Primary HTS)]; assay type: functional
[8] = Luminescence Cell-Based Dose Response HTS to Identify Activators of Luciferase Translation or Activity in H4 […] Cells. [Related pubchem assays: 1829 (Project Summary), 1814 (Primary HTS)]; assay type: functional
H4 = test: Luminescence Cell-Based Dose Response HTS to Identify Activators of 5'UTR Stem-Loop Driven Prion Protein mRNA Translation in H4 Neuroglioblastoma Cells. [Related pubchem assays: 1829 (Project Summary), 1814 (Primary HTS)]; assay type: functional; conditions: Homo sapiens
[9] = target: T3, Replicative DNA helicase DnaB (Mycobacterium tuberculosis, UniProt P9WMR3); test: DnaB intein splicing inhibitors, dose response, biochemical, cell-free fluorescence (AID 449749); assay type: functional
T3 sequence (P9WMR3 whole entry): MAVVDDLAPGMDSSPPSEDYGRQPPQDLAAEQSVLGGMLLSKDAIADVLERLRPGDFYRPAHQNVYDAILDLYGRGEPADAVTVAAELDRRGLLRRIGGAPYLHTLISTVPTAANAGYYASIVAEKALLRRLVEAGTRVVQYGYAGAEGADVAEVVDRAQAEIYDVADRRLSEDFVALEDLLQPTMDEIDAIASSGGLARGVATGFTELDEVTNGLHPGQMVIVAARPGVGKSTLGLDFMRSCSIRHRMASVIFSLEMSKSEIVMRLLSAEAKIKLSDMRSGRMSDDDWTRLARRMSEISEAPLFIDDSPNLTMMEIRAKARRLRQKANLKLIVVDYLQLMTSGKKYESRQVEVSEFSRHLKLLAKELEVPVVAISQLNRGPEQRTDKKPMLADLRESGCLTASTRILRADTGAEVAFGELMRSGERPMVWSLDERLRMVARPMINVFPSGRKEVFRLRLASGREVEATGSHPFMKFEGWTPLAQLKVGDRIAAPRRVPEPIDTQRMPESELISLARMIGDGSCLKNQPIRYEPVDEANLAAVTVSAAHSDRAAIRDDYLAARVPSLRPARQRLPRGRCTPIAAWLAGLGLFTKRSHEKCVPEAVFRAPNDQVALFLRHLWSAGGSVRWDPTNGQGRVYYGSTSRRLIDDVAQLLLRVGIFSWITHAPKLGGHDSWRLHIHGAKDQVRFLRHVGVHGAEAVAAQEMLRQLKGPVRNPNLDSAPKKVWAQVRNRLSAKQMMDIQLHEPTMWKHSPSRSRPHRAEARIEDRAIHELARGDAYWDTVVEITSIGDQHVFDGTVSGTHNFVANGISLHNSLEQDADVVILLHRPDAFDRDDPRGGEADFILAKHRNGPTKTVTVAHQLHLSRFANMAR

Cytochrome P450 2C19, sequence (P33261 whole entry): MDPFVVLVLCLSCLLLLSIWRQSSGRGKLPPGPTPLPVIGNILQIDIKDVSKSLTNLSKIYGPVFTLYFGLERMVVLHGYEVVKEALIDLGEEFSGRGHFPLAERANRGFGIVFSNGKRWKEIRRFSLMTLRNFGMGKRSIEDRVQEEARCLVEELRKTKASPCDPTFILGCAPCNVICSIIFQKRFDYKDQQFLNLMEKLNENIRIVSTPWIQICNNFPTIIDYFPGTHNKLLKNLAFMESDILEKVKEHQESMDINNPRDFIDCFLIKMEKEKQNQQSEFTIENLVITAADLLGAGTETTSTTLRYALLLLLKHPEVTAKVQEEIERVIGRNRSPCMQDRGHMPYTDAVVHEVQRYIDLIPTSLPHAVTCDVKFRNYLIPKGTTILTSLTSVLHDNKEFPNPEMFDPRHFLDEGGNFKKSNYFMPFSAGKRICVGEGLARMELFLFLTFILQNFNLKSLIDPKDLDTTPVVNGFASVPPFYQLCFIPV

## COCCNC(=O)CSc1nc2cc(OC)c(OC)cc2c(=O)n1Cc1ccco1
Cytochrome P450 2C19; read-out: AC50
  AC50: 20 µM (inconclusive)
Cytochrome P450 3A4
  AC50: 3.55 µM (inconclusive)

## CCCS(=O)(=O)N1CCCC(C(=O)NCCCN2CCN(c3ccc(F)cc3)CC2)C1 (stereo not given)
Cytochrome P450 2D6
  AC50: 5.01 µM (inconclusive)

## CC(C)c1ccc(N2C(=O)CC(Sc3nc4ccccc4o3)C2=O)cc1 (stereo not given)
Cytochrome P450 1A2
  AC50: 5.01 µM (inconclusive)
Cytochrome P450 3A4
  AC50: 39.8 µM (inconclusive)

## COc1ccccc1NC(=O)Nc1nc(CC(=O)N2CCN(c3ccccc3)CC2)cs1
[1]
  EC50: > 260 µM (inactive)

## N#Cc1ccc(-c2ccc(F)cc2)nc1Sc1ccccc1
Cytochrome P450 2C19; read-out: AC50
  AC50: 5.01 µM (inconclusive)
Cytochrome P450 3A4
  AC50: 12.6 µM (inconclusive)
Cytochrome P450 2C9
  AC50: 5.01 µM (inconclusive)

## CCNc1ncc2nc(-c3ccc(OC)cc3)c(=O)n(-c3ccc(OC)cc3)c2n1
Cytochrome P450 3A4
  AC50: 12.6 µM (inconclusive)

## O=C(CCC1CCCC1)/N=C1\SC2CS(=O)(=O)CC2N1c1ccccc1F (stereo not given)
[1]
  EC50: > 260 µM (inactive)

## Nc1ncnc(N)c1N=Nc1ccccc1
[2]
  EC50: 15.7 µM (active)
[3]
  EC50: 11.2 µM (active)

## CCN(CC(=O)Nc1ccc(NC(C)=O)cc1)C(=O)c1ccccc1CCc1ccccc1
[4]
  AC50: > 195 µM (inactive)

## CCCCN1CCCC[C@H]1C(=O)Nc1c(C)cccc1C [LEVOBUPIVACAINE]
Cytochrome P450 3A4
  AC50: 10 µM (inconclusive)

## CCOc1cccc2cc(C(N)=O)/c(=N/Cc3ccccc3)oc12
Cytochrome P450 3A4
  AC50: 14.1 µM (inconclusive)

## O=c1c(-c2cccs2)nc2cnc(N3CCOCC3)nc2n1Cc1ccc(F)cc1
Cytochrome P450 1A2
  AC50: 20 µM (inconclusive)
Cytochrome P450 3A4
  AC50: 2.51 µM (inconclusive)

## Cn1c(S)nnc1CNS(=O)(=O)c1ccc(Cl)cc1
Cytochrome P450 3A4
  AC50: 15.8 µM (inconclusive)

## Cc1ccn(CC(=O)N2CCCC(N3CCN(c4ccc(F)cc4)CC3)C2)n1 (stereo not given)
[1]
  EC50: > 260 µM (inactive)

## Cc1ccc(CS(=O)(=O)CCC(=O)NCCN2CCCC2)cc1
Cytochrome P450 2C19; read-out: AC50
  AC50: 39.8 µM (inconclusive)
Cytochrome P450 2D6
  AC50: 0.1 µM (inconclusive)
Cytochrome P450 3A4
  AC50: 25.1 µM (inconclusive)

## O=c1c(-c2cccc(F)c2)nc2cncnc2n1C1CC1
Cytochrome P450 3A4
  AC50: 12.6 µM (inconclusive)

## NCCCN1CCN(c2ccccc2)CC1
Cytochrome P450 2D6
  AC50: 3.16 µM (inconclusive)

## Cc1noc(NS(=O)(=O)c2cccc3c(N(C)C)cccc23)c1C [BMS-182874]
Cytochrome P450 3A4
  AC50: 20 µM (inconclusive)

## CC(NC(=O)c1ccc(Cl)cc1)c1nnc(SCc2ccc([N+](=O)[O-])cc2)n1C (stereo not given)
Cytochrome P450 2C19; read-out: AC50
  AC50: 39.8 µM (inconclusive)
Cytochrome P450 1A2
  AC50: 15.8 µM (inconclusive)
Cytochrome P450 3A4
  AC50: 8.91 µM (inconclusive)
Cytochrome P450 2C9
  AC50: 28.2 µM (inconclusive)

## COc1ccc(Cn2c3ccc(OC)cc3c3nc4ccccc4nc32)cc1
[4]
  AC50: 13 µM (active)

## O=C(CN1CCOCC1)N(c1ccccc1)c1ccc2ccccc2c1
[1]
  EC50: > 260 µM (inactive)

## N#CCCn1c(=O)c(-c2ccc(F)cc2)nc2cnc(N3CCNCC3)nc21
Cytochrome P450 3A4
  AC50: 25.1 µM (inconclusive)

## Nc1nnnn1/N=C\c1ccc(Cl)c([N+](=O)[O-])c1
[1]
  EC50: > 260 µM (inactive)

## Cc1cccc(CNc2cc(-c3ccccc3CN(C)C)ncn2)c1
Cytochrome P450 2C19
  AC50: inconclusive
Cytochrome P450 2D6
  AC50: 20 µM (inconclusive)

## COc1ccc(-c2csc(NC(=O)Cn3nc(C)cc3C)n2)cc1
Cytochrome P450 3A4
  AC50: 15.8 µM (inconclusive)
Cytochrome P450 2C9
  AC50: 0.794 µM (inconclusive)

## Cc1ccc(NS(=O)(=O)c2sc3ccc(Cl)cc3c2C)cc1
[4]
  AC50: 3.78 µM (active)

## CS(=O)(=O)N1CCC[C@@]2(CCN(C(=O)Nc3cccc(F)c3)C2)C1
Cytochrome P450 3A4
  AC50: 12.6 µM (inconclusive)

## CC(c1ccccc1)N1CC(C(=O)N2CCN(c3ccc(F)cc3)CC2)CC1=O (stereo not given)
[1]
  EC50: > 260 µM (inactive)

## CN1C(=O)c2cccc(NCCCCCCN3C(=O)c4ccccc4C3=O)c2C1=O
[5]
  AC50: 5.57 µM (active)
[6]
  AC50: 17.2 µM (active)

## O=C(/C=C/c1ccc2c(c1)OCO2)NCCSCc1ccc(Cl)cc1
[4]
  AC50: 0.922 µM (active)

## COc1ccc(O[C@H]2C=C[C@@H](c3ccccc3)O[C@H]2CO/N=C(/C)CCC(=O)OC[C@@H]2O[C@H](C#Cc3ccccc3)C=C[C@@H]2Oc2ccc(C)cc2)cc1
Cytochrome P450 2C19; read-out: AC50
  AC50: 0.126 µM (inconclusive)
Cytochrome P450 3A4
  AC50: 3.16 µM (inconclusive)

## Cc1ccc(-n2nc(C)c3c2OC(N)=C(C#N)C3c2cccs2)cc1 (stereo not given)
[7]
  EC50: > 120 µM (not active)
[8]
  EC50: 33 µM (active)
H4
  EC50: > 120 µM (not active)
[9]
  AC50: 3.81 µM (active)

## Cc1onc(-c2ccccc2)c1NC(=O)N(CCC#N)Cc1ccccc1
[1]
  EC50: > 260 µM (inactive)

## O=C1Oc2ccccc2C(=O)/C1=C\N1C(=O)N/C(=C\c2ccccc2O)C1=O
Cytochrome P450 2C19; read-out: AC50
  AC50: 6.31 µM (inconclusive)
Cytochrome P450 2D6
  AC50: 3.98 µM (inconclusive)
Cytochrome P450 1A2
  AC50: 0.316 µM (inconclusive)
Cytochrome P450 3A4
  AC50: 3.98 µM (inconclusive)

## FC(F)(F)c1ccccc1-c1nccc(NCCN2CCOCC2)n1
Cytochrome P450 2C19; read-out: AC50
  AC50: 6.31 µM (inconclusive)
Cytochrome P450 2D6
  AC50: 12.6 µM (inconclusive)

## CC(C)NCC(O)COCc1ccc(Cl)cc1 (stereo not given)
[1]
  EC50: > 260 µM (inactive)

## CC(=O)Nc1ccc(NC(=O)c2ccc(NS(=O)(=O)c3cc(C(C)(C)C)cc(C)c3C)cc2)cc1
[1]
  EC50: 12.5 µM (active)

## COc1ccc(-c2sc3cc4c(cc3c2C#CC2(O)CCCCC2)OCO4)cc1
[4]
  AC50: 4.07 µM (active)
